Data: patent US6242476A, “Leukotriene A4 hydrolase inhibitors” (Santen Pharmaceutical Co., Ltd., priority 1997, dated 2001)
pIC50: −log10 of the molar value.

Target: T1, LTA4 hydrolase (Cavia porcellus, UniProt P19602)
T1 construct: prepared by extracting from guinea pig lung without purification; from tissue; host or cells: lung of Hartley guinea pig
T1 sequence (P19602 1-611): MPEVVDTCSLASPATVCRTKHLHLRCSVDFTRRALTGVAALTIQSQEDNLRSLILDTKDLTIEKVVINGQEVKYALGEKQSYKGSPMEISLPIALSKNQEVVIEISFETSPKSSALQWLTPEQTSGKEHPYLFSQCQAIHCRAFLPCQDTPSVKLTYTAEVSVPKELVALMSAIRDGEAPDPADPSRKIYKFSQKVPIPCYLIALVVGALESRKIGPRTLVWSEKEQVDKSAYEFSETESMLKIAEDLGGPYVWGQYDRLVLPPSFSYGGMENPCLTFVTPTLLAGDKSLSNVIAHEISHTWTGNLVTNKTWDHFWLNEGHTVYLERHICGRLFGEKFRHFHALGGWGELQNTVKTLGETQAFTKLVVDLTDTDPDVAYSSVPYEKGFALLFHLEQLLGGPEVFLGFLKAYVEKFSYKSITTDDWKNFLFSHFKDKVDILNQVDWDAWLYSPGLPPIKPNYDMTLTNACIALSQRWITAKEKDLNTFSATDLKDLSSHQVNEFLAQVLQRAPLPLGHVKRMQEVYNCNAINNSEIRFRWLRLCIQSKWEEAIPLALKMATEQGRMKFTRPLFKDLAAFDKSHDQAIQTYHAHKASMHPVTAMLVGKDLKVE
Assay: Inhibition of LTA4 hydrolase: LTB4 produced from LTA4 by enzyme preparation from guinea pig lung (HPLC)
Assay type: biochemical
Conditions: guinea pig lung enzyme preparation 0.4-0.6 mg protein; HEPES 50 mM, pH 7.8; LTA4 63 μM; DTT 3 mM; 37° C., one minute; read-out: IC50 (concentration of the compounds required to inhibit LTA4 hydrolase activity by 50%)
Experimental: Izumi et al. had reported a method of measuring LTA4 hydrolase activity by measuring an amount of LTB4 produced by an enzymatic reaction using LTA4 as a substrate (Biochem. Biophys. Res. Commun., 135, 139-145 (1986)). Effects of the present compounds on LTA4 hydrolase were examined according to the method described in the literature.
An enzyme preparation used in this pharmacological test was prepared by extracting from guinea pig lung without purification according to the method of Izumi et al. (Biochem. Biophys. Res. Commun., 135, 139-145 (1986)) and the method of Evans et al. (Biochem. Biophys. Acta, 840, 43-50 (1985)). The experimental method is as follows:
Lungs were excised from a Hartley guinea pig (body weight: 330 g). The lungs were homogenized in phosphoric acid buffer (50 mM, pH 7.4, containing 1 mM ethylenediaminetetraacetic acid (EDTA) and 1 mM dithiothreitol (DTT) having weight three times that of the lungs under ice-cooling. The homogenate was centrifuged at low speed (800×g) for 20 minutes, centrifuged at high speed (10,000×g) for 20 minutes and ultracentrifuged (100,000×g) for 60 minutes to give a supernatant. The supernatant was brought to 40% saturation by adding a saturated aqueous ammonium sulfate solution (pH 7.0-7.2, containing 1 mM DTT) dropwise under ice-cooling and centrifuged at high speed (10,000×g) for 20 minutes. The resulting supernatant was brought to 70% saturation by adding a saturated aqueous ammonium sulfate solution (pH 7.0-7.2, containing 1 mM DTT) dropwise and centrifuged at high speed (10,000×g) for 20 minutes. The obtained pellet was dissolved in 2 ml of Tris-acetic acid buffer (20 mM, pH 7.8, containing 1 mM DTT) and dialyzed in 2 liters of the solution to give the enzyme preparation.
LTA4 used, which is the substrate, was prepared by hydrolyzing LTA4 methyl ester and dissolved in ethanol.
In order to examine effects of the test compounds on the enzyme preparation, reactions were performed under the following condition using mixed solutions consisting of the composition shown in Table 1. […]
HEPES buffer 50 mM, pH 7.8
Enzyme preparation 0.4-0.6 mg protein
DTT aqueous solution 3 mM
Test compounds 10^-8 -10^-3 M
The above-mentioned solution (50 μl) was incubated at 37° C. for one minute. To the reaction mixture was added 100 μl of a mixed liquid of acetonitrile-ethanol-acetic acid (150:50:3, volume ratio) under ice-cooling. The mixture was allowed to stand at -20° C. for 30 minutes and centrifuged at high speed (10,000×g) for five minutes to give a supernatant. An amount of LTB4 produced in the supernatant was measured by high-speed liquid chromatography.
The degree of the inhibitory effect of each test compound on LTA4 hydrolase is expressed by the inhibition rate calculated by the following equation. [formula]
A: amount of LTB4 formed in the absence of the test compound
B: amount of LTB4 formed in the presence of the test compound
The results are represented in concentration of the compounds required to inhibit LTA4 hydrolase activity by 50%, i.e., IC50.

| pIC50 | Compound |
| --- | --- |
| 6.08 | Cc1ccccc1CS[C@H]1C[C@@H](C(=O)O)N(C(=O)[C@H](C)CS)C1 [Compound a, 1-[(2S)-3-mercapto-2-methylpropionyl]-(4S)-4-(2-methylbenzylthio)-L-proline] |
| 7.28 | CC(C)c1ccc(CS[C@H]2C[C@@H](C(=O)O)N(C(=O)[C@H](C)CS)C2)cc1 [Compound b, (4S)-4-(4-isopropylbenzylthio)-1-[(2S)-3-mercapto-2-methylpropionyl]-L-proline] |
| 6.10 | CC(C)c1ccc(CCS[C@H]2C[C@@H](C(=O)O)N(C(=O)[C@H](C)CS)C2)cc1 [Compound c, (4S)-4-(4-isopropylphenyethylthio)-1-[(2S)-3-mercapto-2-methylpropionyl]-L-proline] |
| 6.54 | CC(C)c1ccc(CS[C@@H]2C[C@@H](C(=O)O)N(C(=O)[C@H](C)CS)C2)cc1 [Compound d, (4R)-4-(4-isopropylbenzylthio)-1-[(2S)-3-mercapto-2-methylpropionyl]-L-proline] |
| 6.10 | CC(C)c1ccc(CO[C@@H]2C[C@@H](C(=O)O)N(C(=O)[C@H](C)CS)C2)cc1 [Compound e, (4R)-4-(4-isopropylbenzyloxy)-1-[(2S)-3-mercapto-2-methylpropionyl]-L-proline] |
| 7.51 | CCCCc1ccc(CS[C@H]2C[C@@H](C(=O)O)N(C(=O)[C@H](C)CS)C2)cc1 [Compound f, (4S)-4-(4-butylbenzylthio)-1-[(2S)-3-mercapto-2-methylpropionyl]-L-proline] |
| 6.92 | CSc1ccc(CS[C@H]2C[C@@H](C(=O)O)N(C(=O)[C@H](C)CS)C2)cc1 [Compound g, 1-[(2S)-3-mercapto-2-methylpropionyl]-(4S)-4-[4-(methylthio)benzylthio]-L-proline] |
| 7.47 | C[C@H](CS)C(=O)N1C[C@@H](SCc2ccc(C3CCCCC3)cc2)C[C@H]1C(=O)O [Compound h, (4S)-4-(4-cyclohexylbenzylthio)-1-[(2S)-3-mercapto-2-methylpropionyl]-L-proline] |
